A melting point compilation (Tetko et al.; mined from patent text by program, amines drawn as free bases though some values may be those of a salt)

| melting point | Structure (SMILES) |
| --- | --- |
| 121 to 123 °C | COc1cc2ncnc(N3CCN(C(=O)Nc4ccccc4)CC3)c2cc1OC |
| 145 to 147 °C | CN1CCc2cc(S(=O)(=O)NC(=O)Nc3ccc(Cl)cc3)ccc21 |
| 169 to 171 °C | O=C(O)Cc1ccc2c(c1)C(=O)c1cc(Cl)ccc1CO2 |
| 93 to 95 °C | CCOC(=O)c1cnc2ccnn2c1Cl |
| 178 to 183 °C | CC(C)CC(NC(=O)C(C)NC(=O)C(CC(=O)N1CCOCC1)Cc1cccc2ccccc12)C(O)C(=O)OC(C)C (mixture of isomers) |
| 103 to 105 °C | CCCc1cc(Cn2c(=O)ccc3c(CC)nc(CC)cc32)ccc1O[Si](C)(C)C(C)(C)C |
| 100 to 105 °C | N=C(N)NCCc1ccc(OCCC2Oc3ccccc3N(Cc3cccc(OCc4ccccc4)c3)C2=O)cc1 (stereo not drawn) |
| 107 to 110 °C | CCOC(=O)C1=C(COCc2nc(C)cs2)NC(C)=C(C(=O)OC)C1c1ccccc1Cl (stereo not drawn) |
| 194 to 195 °C | CCCCn1cc2c(n1)c(N)nc1ccccc12 |
| 111 °C | COC(C)=CC(=O)Nc1cccc(OC(C)=O)c1 |
| 107 to 108 °C | CCOC(=O)[C@@H](O)[C@@H]1OC(=O)c2cc(OC)c(OS(=O)(=O)c3ccc(C)cc3)cc21 |
| 165 to 167 °C | Nc1nc(-c2ccc(CCCCN3CCN(c4ccccc4)CC3)s2)cs1 |
| 79 to 82 °C | CC(C)(C)c1cc(SCO)cc(C(C)(C)C)c1O |
| 266 to 268 °C | Cc1cc(C2=NN=C(C(N)=O)Cc3cc4c(cc32)OCO4)ccc1[N+](=O)[O-] |
| 223 to 225 °C | COc1cccn(C2c3cc(S(=O)(=O)C(F)(F)F)ccc3OC(C)(C)C2O)c1=O (stereo not drawn) |
| 126 °C | Cc1nc2c(n1C(=O)OC(C)(C)C)CCCC2=O |
| 145 to 146 °C | O=C(/C=C/c1c(Cl)cccc1Cl)/C=C/c1c(Cl)cccc1Cl |
| 98.5 °C | Cc1c(C#N)c(SC(F)(F)F)cn1-c1c(Cl)cc(C(F)(F)F)cc1Cl |
| 87 to 88 °C | CN(C)C(=O)c1ccccc1Sc1ccc(Cl)cc1C=O |

| melting point | Structure (SMILES) |
| --- | --- |
| 200 to 202 °C | N#Cc1cc(O)ccc1[N+](=O)[O-] |
| 71 to 75 °C | FC(F)(F)c1[nH]c(-c2ccc(Cl)cc2)c(C(F)(F)F)c1Br |
| 150 to 153 °C | CCC1CCCCN1C(=O)C=Cc1c(-c2ccncc2)nn2ccccc12 (stereo not drawn) |
| 150 °C | CCOC(=O)c1cncc(O)c1 |
| > 280 °C | CC(C)Cc1c2c(nn1C)c(O)nc1ccccc12 |
| 216 to 218 °C | O=c1ccn(-c2cccc(C(F)(F)F)c2)nc1-c1cn(C(c2ccccc2)(c2ccccc2)c2ccccc2)nc1-c1ccccc1 |
| 101 to 103 °C | COc1cn(-c2ccc(OCc3ccccc3)cc2F)nc(C(C)=O)c1=O |
| 42 to 43 °C | CCOC(=O)C(OCOc1ccc(-c2ccc(Cl)cc2)cc1)(C(F)(F)F)C(F)(F)F |
| 201 to 203 °C | CCOC(=O)c1cc(OC)c2c(c1)C(=O)c1c(F)ccc(OC)c1C2=O |
| 126 to 127 °C | BrCc1ccc2nc(-c3ccccc3)ccc2c1 |
| 135 °C | O=S(=O)(c1ccc(Nc2nccc(Nc3ccc(F)cc3)n2)cc1)N(CCN1CCCC1)[C@H]1CC[C@H](O)CC1 |
| 114 to 120 °C | NS(=O)(=O)c1cc(C(=O)O)cc(SCc2ccccc2)c1-c1ccccc1 |
| 197 to 199 °C | C[C@H](CO)Nc1nc(SCc2cccc(F)c2F)nc2[nH]c(=O)c(NCCO)nc12 |
| 187 to 188 °C | O=C(O)c1cn(Cc2ccc(OCc3csc(-c4ccccc4)n3)cc2)nc1-c1cccs1 |
| 67.5 to 69.5 °C | C=CCSC1=C(O)CC(C)(C)CC1=O |
| 160 to 161 °C | CCOC(=O)N(C(=O)N1CC(c2ccc(Cl)cn2)C(c2ccc(F)cc2)=N1)c1ccc(OC(F)(F)F)cc1 (stereo not drawn) |
| 220 to 222 °C | COc1ccc(OC)c(C=C2CCn3c2nc2ccc(Cl)cc2c3=O)c1 |
| 67 to 68 °C | CCC(=O)CCCCCCC(=O)c1ccc(OCc2ccccc2)c(OCc2ccccc2)c1 |
| 163 to 165 °C | CCCCc1oc2ccccc2c1S(=O)(=O)c1ccc(O)cc1 |

| melting point | Structure (SMILES) |
| --- | --- |
| > 253 °C | Cc1nc2c(n1C)C(=O)c1ccccc1C2=O |
| 221 to 222 °C | Cn1c(=O)c(-c2ccc(Cl)cc2Cl)cc2c3cc(-c4cocn4)ccc3n(C)c21 |
| 147 to 148 °C | Cc1ccc(C)n1Nc1ccc(N2CC(C)OC(C)C2)nn1 (stereo not drawn) |
| 239 to 240 °C | NC(=O)c1c(Cl)c(-c2ccccc2)n2c1CN(S(=O)(=O)c1ccccc1F)CC2 |
| 71 °C | CC=C(Oc1nc(OC)cc(OC)n1)C(=O)OC |
| 197 to 199 °C | O=C1c2cccc(O)c2C2(OCCS2)c2c(O)cccc21 |
| 146 to 147 °C | Cc1c(NC(=O)c2ccc(CC(=O)C(C)C)cc2)ccc2cc(CN3CCCC3)cnc12 |
| 175 to 177 °C | COc1ncc(CC2SC(N3CCOCC3)=NC2=O)cc1-c1ccc(O)c(C23CC4CC(CC(C4)C2)C3)c1 (stereo not drawn) |
| 227 °C | O=C(Nc1cccc(S(=O)(=O)NCc2ccccc2)c1)c1cnn2c(C(F)(F)F)cc(-c3ccc(C(F)(F)F)cc3)nc12 |
| 216 to 219 °C | CC(C)[C@H](NC(=O)OCc1ccccc1)C(=O)N[C@@H](Cc1ccccc1)[C@@H](O)[C@@H](O)[C@H](Cc1ccccc1)NC(=O)[C@@H](NC(=O)N1CCN(C)CC1)C(C)C |
| 104 °C | CCC(C)(C)c1ccc(OCC2CN=C(N)O2)cc1 (stereo not drawn) |
| 105 to 107 °C | CC(Oc1ccc(Oc2ccc(C(F)(F)F)cc2)cc1)C(=O)N1CCCO1 (stereo not drawn) |
| 135 °C | CCN(CC)C(=O)c1cc(-c2ccc(Cl)cc2)c2ccsc2c1 |
| 76 to 80 °C | CC(=O)Nc1cccn(CC(=O)NC(C(=O)C(F)(F)F)C(C)C)c1=O (stereo not drawn) |
| 174 °C | O=C(O)c1ccc(-c2ccc(I)c(O)c2)cc1 |
| 122 °C | C#CCOC(=O)c1ccc(OCCC2CCN(c3ccc(Cl)nn3)CC2)cc1 |
| 118 to 120 °C | N#CN1CCN(c2nn(-c3ccccc3)c3ccccc23)CC1 |
| 181 to 183 °C | Cn1ncnc1COc1nn2c(-c3ccccc3F)nncc2c1-c1cccnc1 |

The remaining lines, values behind:

| Structure (SMILES) | melting point |
| --- | --- |
| Cc1ccc(Sc2c(-c3ccc(S(C)(=O)=O)cc3)cnn(-c3cccc(Cl)c3)c2=O)cc1 | 178 °C |
| O=C(O)c1ccc2oc(-c3ccccc3)cc(=O)c2c1 | 281 to 283 °C |
| Cc1cc(CO)c2cccc(OCc3ccccc3)c2n1 | 137 to 141 °C |
| O=C(O)c1cc2c(=O)n(-c3ccccc3)c3ccccc3n2c1 | 304 to 306 °C |
| O=C(O)CN1CC(=O)N(Cc2cccc([N+](=O)[O-])c2)C1=O | 165 to 166 °C |
| CN(C)C1CCc2[nH]c3c(C#N)cccc3c2C1 (stereo not drawn) | 177 to 179 °C |
| CCOC(=O)c1nc(CCl)n(-c2ccc(Br)cc2C(=O)c2ccccn2)n1 | 96 to 97 °C |
| CC(CCN)P(C)(=O)O (stereo not drawn) | 68 to 75 °C |
| CC(C)(C)OC(=O)N1CCC(n2cc(-c3ccc(Oc4ccccc4)cc3)c3c(N)ncnc32)CC1 | 168 to 170 °C |
| COc1cc2c(cc1OC)C(c1cccc(Cl)c1)=NN=C(C)C2 | 166 to 168 °C |
| CN1C(=O)[C@]2(C)CC[C@](NCC(=O)N3CCC[C@H]3C#N)(C1=O)C2(C)C | 141 to 144 °C |
| O=C(O)c1cc2c(cc1C(=O)O)C(c1ccccc1)(C(F)(F)F)c1cc(C(=O)O)c(C(=O)O)cc1O2 | 276 °C |
| CC(C)(C)OC(=O)N1CCN(C(=O)C2CCN(C(=O)OCc3ccccc3)C2)CC1 (stereo not drawn) | 70 to 74 °C |
| COCCOC(=O)NNC(=O)OCCOC | 71.3 to 76.5 °C |
| CCOC(=O)N1CCN(c2ccc(O)cc2)CC1 | 169 °C |
| CN1Cc2c(-c3cccs3)ncn2-c2cccc(Cl)c2C1=O | 222 to 223 °C |
| CCCCc1nnc(SCc2ccc(Cl)cc2)n1Cc1ccc(OC(C(=O)O)c2ccccc2Cl)cc1 (stereo not drawn) | 100 to 102 °C |
| CCCCCCCCCCC(=O)OC1CC(C)(C)N(CC#N)C(C)(C)C1 | 54 °C |
| O=C(NCCC[PH](=O)O)OCc1ccccc1 | 53 to 55 °C |
| COC(=O)CCc1nc(I)ccc1O | 145 to 148 °C |
| ClCCCc1cc2cccnc2[nH]1 | 75 °C |

| Structure (SMILES) | melting point |
| --- | --- |
| CN(C)Cc1c[nH]c2ccc(Br)cc12 | 139 °C |
| Cc1cc(C(C)(C)C)c(O[Si](C)(C)N=C=S)c(C(C)(C)C)c1 | 83 to 84 °C |
| Cc1nc(-c2cn(Cc3ccc(F)cc3)nn2)sc1C(=O)NCc1ccccc1 | 114 to 115 °C |
| COc1ccc(S(N)(=O)=O)cc1C(=O)NCC1CCCN1C1CC1 (stereo not drawn) | 163 °C |
| N#Cc1nn(-c2c(Cl)cc(C(F)(F)F)cc2Cl)cc1C(=O)C1CC1 | 195 to 197 °C |
| CC(=C(c1ccc(N(C)C)cc1)c1ccc(N(C)C)cc1)P(c1ccccc1)c1ccccc1 | 95 to 97 °C |
| O=C(C1CC1)N1CCC(C2CCc3ccc(O)cc32)CC1 (stereo not drawn) | 75 to 82 °C |
| O=[N+]([O-])c1ccccc1Nc1ccc(Nc2nccs2)cc1 | 195 to 197 °C |
| CC(C)c1cc(OCCO)cc2c1C(=O)N(COc1nc3ccccn3c(=O)c1Cl)S2(=O)=O | 214 to 216 °C |
| O=C(O)c1ccc2oc(=O)n(Cc3ccc4[nH]c(=O)[nH]c4c3)c2c1 | 230 to 231 °C |
| CC(=O)c1ccccc1Nc1nc(Nc2ccc3c(c2)CCCC(=O)N3C)ncc1Cl | 215 to 217 °C |
| N#Cc1ccc(NC(=O)NC(=O)c2c(F)cccc2F)c(Cl)c1Cl | 285 to 287 °C |
| CC(=O)Oc1ccc2c(c1)Sc1cc(N(C)C)ccc1N2C(C)=O | 124 to 128 °C |
| COc1ccc(C(=O)Nc2ccccc2)cc1NCc1ccoc1 | 188 to 190 °C |
| Nc1ncc(-c2ccc(F)c3ccccc23)o1 | 171 to 174 °C |
| COc1ccc(S(=O)c2ccccc2)cc1[N+](=O)[O-] (stereo not drawn) | 135 to 137 °C |
| CC(=O)NCC=C1CCc2ccc3nc(CCCCc4ccccc4)oc3c21 | 113 to 115 °C |
| CC(C)(C)c1cc(C#N)c(O)cn1 | 185 to 195 °C |
| NS(=O)(=O)c1ccc(-c2ccco2)cc1 | 202 to 203 °C |
| COc1cc2c(cc1Br)C=C(C)N(C(=O)C1CC1)N=C2c1ccc(N)cc1 | 224 to 226 °C |
| CC(Cc1ccc(Cl)c(Cl)c1)C(=O)Nc1cccc2ncccc12 (stereo not drawn) | 168 to 170 °C |
